# Source: patent publication US10786483B2, “Tumescent contravenom drug delivery” (HK Pharma, priority 2016, dated 2020)
# Read-outs that look alike come from different tables or passages of the source.
# Legend:
# Bee Venom sPLA2 = Bee Venom sPLA2 (Apis mellifera, UniProt P00630); conditions: cited from earlier work
# sPLA2 activity in serum [1] = conditions: rat serum; read-out: IC50, inhibitory effect on sPLA2 activity in serum; cited from earlier work
# sPLA2 activity in serum [2] = conditions: rabbit serum; read-out: IC50, inhibitory effect on sPLA2 activity in serum; cited from earlier work
# sPLA2 activity in serum [3] = conditions: guinea pig serum; read-out: IC50, inhibitory effect on sPLA2 activity in serum; cited from earlier work
# sPLA2 activity in serum [4] = conditions: human serum; read-out: IC50, inhibitory effect on sPLA2 activity in serum; cited from earlier work
# snake venoms = conditions: mice; cited from earlier work
# [5] = precipitation on mixing acyclovir, lidocaine and epinephrine; format: physicochemical
# From the text: Some drugs are considered incompatible because of precipitation when mixed together in the same solution. […] This tumescent solution can be safely and painlessly injected subcutaneously into a human patient. This is surprising and unexpected because the FDA approved package insert labeling for acyclovir for IV infusion states explicitly the subcutaneous delivery must be avoided. Similar increased solubility and drug-drug compatibility of mixtures of multiple contravenom drugs can be expected with sufficient tumescent dilution. This is a unique and unexpected advantage of tumescent contravenom delivery.
# platelet aggregation = conditions: cited from earlier work
# [6] = From the text: Heart rates, before, during, and after tumescent infiltration and immediately after liposuction were compared.
# [7] = tolerance interval analysis, probability that Cmax >=6 μg/mL; parameters: species or system human; conditions: 99% confidence
# Description: Tolerance intervals were calculated at a 99% level of confidence.
# [8] = 41 procedures, 14 subjects, 19.2 to 52 mg/kg, over the 24-hour study period
# Description: Volunteers participated in 1 to 2 infiltration studies without liposuction and then one study with tumescent liposuction totally by local anesthesia.
# Individual subjects served as their own controls. Large volume (≥500 mL) tumescent infiltration was accomplished using a peristaltic tumescent infiltration pump (HKSurgical.com, San Clemente, Calif.).
# Serum samples were obtained from a peripheral vein using an indwelling 20-gauge IV catheter by a 2-syringe sampling technique. The first syringe contained 2 mL saline to flush the IV catheter and then remove and discard 2 mL of blood.
# For each subject, the initial infiltration procedures were done without subsequent liposuction, and the final tumescent infiltration was followed by liposuction after allowing at least 1 hour of detumescence for gradual dispersion of subcutaneous tumescent fluid. Tumescent infiltration procedures were separated by at least 1 week. The liposuction aspirate was collected in clear plastic volumetric canisters. After allowing at least 1 hour for gravitational separation of the lipid and aqueous aspirate, the resulting supernatant fat, infranatant blood-tinged tumescent anesthetic solution, and the total aspirate volume were recorded.
# AUC∞, Cmax, and Tmax without and with liposuction were compared by the paired t test.
# [9] = tested on: lymphatic smooth muscle contraction; conditions: rats, applied topically; cited from earlier work
# [10] = cited from earlier work
# [11] = with liposuction, epinephrine dose 1.6 to 4.3 mg
# [12] = without liposuction, epinephrine dose 1.2 to 4.3 mg
# Sequence of Bee Venom sPLA2 (P00630 34-167 limits assumed): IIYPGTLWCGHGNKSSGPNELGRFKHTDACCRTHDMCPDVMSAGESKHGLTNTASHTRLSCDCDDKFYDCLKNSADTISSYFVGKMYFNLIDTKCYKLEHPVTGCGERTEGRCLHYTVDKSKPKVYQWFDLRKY
structure (smiles),measurement,setting,value
"CCc1c(C(=O)C(N)=O)c2c(OCC(=O)OC)cccc2n1Cc1ccccc1 [Me-Varespladib, methyl varespladib]","IC50, sPLA2 inhibition",Bee Venom sPLA2,*Indeterminate
CCc1c(C(=O)C(N)=O)c2c(OCC(=O)O)cccc2n1Cc1ccccc1 [Varespladib],IC50,sPLA2 activity in serum [1],8.1 nM
same,IC50,sPLA2 activity in serum [2],5 nM
same,IC50,sPLA2 activity in serum [3],3.2 nM
same,IC50,sPLA2 activity in serum [4],6.2 nM
same,neutralizing a wide variety of snake venoms,snake venoms,effective
Nc1nc2c(ncn2COCCO)c(=O)[nH]1 [acyclovir],precipitation on mixing,"[5]; 1 gm acyclovir (1 g/20 ml) with 1 gram lidocaine (1 gram/100 ml) with epinephrine (1 mg/L), 120 ml mixture",immediate precipitation
same,precipitation on mixing,"[5]; 1 gm acyclovir and 1 gm lidocaine in 100 ml, 250 ml and 500 ml of saline",precipitation
same,precipitation on mixing,"[5]; 1 gm acyclovir, 1 gm lidocaine and 1 mg epinephrine in 1000 ml of saline",no precipitation
CCOC(=O)c1ccc(N)cc1 [benzocaine],platelet aggregation induced by ADP,platelet aggregation,inhibit
CCCCN1CCCCC1C(=O)Nc1c(C)cccc1C (centres unmarked) [bupivacaine],platelet aggregation induced by ADP,platelet aggregation,inhibit
CNC[C@H](O)c1ccc(O)c(O)c1 [epinephrine],clinical evidence of toxicity,"[6]; 14 subjects, 41 procedures",no clinical evidence
same,episodes of tachycardia,"[6]; 41 studies, most patients received oral clonidine 0.1 mg",no episodes
same,mean difference in heart rate before infiltration and after liposuction,[6]; [11],+5
same,range of difference in heart rate before infiltration and after liposuction,[6]; [11],−12 to +33
same,mean difference in heart rate before and after infiltration,[6]; [12],−3.4
same,range of difference in heart rate before and after infiltration,[6]; [12],−24 to +17
CCN(CC)CC(=O)Nc1c(C)cccc1C [lidocaine],risk of lidocaine serum concentration >6 μg/mL,"[7]; No liposuction, 40 mg/kg",1/750
same,risk of lidocaine serum concentration >6 μg/mL,"[7]; No liposuction, 50 mg/kg",1/15
same,risk of lidocaine serum concentration >6 μg/mL,"[7]; No liposuction, 55 mg/kg",1/4
same,risk of lidocaine serum concentration >6 μg/mL,"[7]; No liposuction, […] mg/kg",1/80
same,risk of lidocaine serum concentration >6 μg/mL,"[7]; With liposuction, 50 mg/kg",1/500
same,risk of lidocaine serum concentration >6 μg/mL,"[7]; With liposuction, 55 mg/kg",1/100
same,lidocaine-associated adverse event,"[6]; one subject, body mass index 20, 45 mg/kg without liposuction, approximately 12 hours after infiltration",transient nausea
same,"measured serum lidocaine concentrations, all",[8],< 6 µg/mL
same,lidocaine concentrations that consistently inhibit in-vitro platelet aggregation,"platelet aggregation; aggregation induced by ADP, epinephrine and collagen",≥ 0.5 mg/mL
same,effect on platelet aggregation,platelet aggregation; at safe systemic concentrations (e.g. ≤6 micrograms/ml),no effect
same,platelet aggregation induced by ADP,platelet aggregation,inhibit
same,lymph transit time,[9],prolong
same,survival time after injection of venom,[9],increase
same,"recommended maximal dosage, FDA-approved package insert labeling","[10]; lidocaine with epinephrine, infiltration local anesthesia",7 mg/kg
same,maximal safe dosage recommended by American Society for Dermatologic Surgery guidelines,[10]; liposuction totally by local anesthesia,55 mg/kg
